Source: patent publication EP1736150A2 (Pfizer, Inc., priority 1997, dated 1999)
Several values for one entry are separate records, joined by “and”; a condition that tells them apart may be missing. Equal entries are not always repeated.

What was measured:
[1] = Hygroscopicity (moisture microbalance); assay type: physicochemical; details: 10% to 90% humidity, 25°C
Method: A temperature of 25°C is maintained during all hygroscopicity measurements.

[2] = Accelerated chemical stability (reverse phase HPLC); details: same accelerated stability conditions
[3] = test system: healthy male human subjects; test: Side effect score versus plasma concentration, PK/PD (Example 6); assay type: in vivo
[4] = test system: healthy male human subjects; test: Side effects by visual analogue scales and emesis (Example 2); assay type: in vivo
[5] = test system: healthy male human subjects; test: Side effects by visual analogue scales and emesis (Example 1); assay type: in vivo
[6] = Plasma pharmacokinetics, bolus versus 15 hr divided dosing (Example 1); assay type: in vivo; details: human
[7] = Plasma pharmacokinetics, bolus versus 7 hr divided dosing (Example 2); assay type: in vivo; details: human, fasted, mean; for AUC(0-t): po, 200 mg
[8] = Pharmacokinetics of sertraline delivered to various portions of the gastrointestinal tract (Example 3); assay type: in vivo; details: for AUC(0-t): human, plasma; for AUC(0-t) / AUC as percent of the AUC observed after dosing with oral tablets: 200 mg
[9] = Mechanical properties of compacts of the pure drug substance; assay type: physicochemical
Method: The measurements of mechanical properties can be routinely accomplished using square compacts of the pure drug substance, in this case sertraline acetate and sertraline L-lactate. The measurements are made in triplicate and the compacts are prepared by uniaxial compression and triaxial decompression.
Samples for the testing of mechanical properties are prepared according to standard procedures. To generate reliable data, such samples must be free of mechanical flaws, such as microcracks. Therefore, a specialized tablet press, prepared as described in U.S. Patent No. 4,880,373, is utilized. […] The apparent density of the compact is determined by measuring the […]. […] The true density of the powder is determined by helium pycnometry. Ordinarily, to achieve the desired solid fraction, trial compactions of carefully weighed powder samples must be performed and the solid fraction of the resultant compact is measured. […]
Dynamic indentation hardness, H0, of the compacts is measured with a pendulum impact apparatus , prepared as described in U.S. Patent No. 4,885,933. […] The time required for the pendulum to pass between two photocells of given distance apart is measured and the pendulum rebound height, hr is automatically calculated. […]

[10] = 200 mg bolus dose group, individual subjects
[11] = GROUP B (8 Divided Doses) 25 mg hourly
[12] = GROUP A (Bolus Dose) 200 mg, summed over 24 hr post-dose
[13] = GROUP B (16 Divided Doses) 12.5 mg hourly, summed over 24 hr post-dose
[14] = 200 mg single dose (Group A), two 100 mg immediate release tablets (ZOLOFT), oral, fasted, mean
[15] = 200 mg single dose, two 100 mg immediate release tablets (ZOLOFT), oral, four subjects with emesis not included
[16] = GROUP A, Ileocecal Infusion, 200 mg as 2 mg/ml solution
[17] = GROUP A, Stomach Infusion, 200 mg as 2 mg/ml solution
[18] = GROUP B, Colonic Infusion (transverse colon), 200 mg as 2 mg/ml solution
[19] = GROUP B, Duodenal Infusion, 200 mg as 2 mg/ml solution

CN[C@H]1CC[C@@H](c2ccc(Cl)c(Cl)c2)c2ccccc21.N[C@@H](CC(=O)O)C(=O)O [sertraline L-aspartate]
hygroscopicity [1]: not hygroscopic
purity of samples after stability testing [2]: greater than 99%

CN[C@H]1CC[C@@H](c2ccc(Cl)c(Cl)c2)c2ccccc21 [sertraline, (1S-cis)-4-(3,4-dichlorophenyl)-1,2,3,4-tetrahydro-N-methyl-1-naphthalenamine]
time at which the maximum diarrhea score was reached ([3]; Study 1, 200 mg bolus dose, post-dose): 3 h
time of emesis ([3]; Study II, 200 mg dose group, individual subjects): 2.6 hr and 2.8 hr (2×) and 3.8 hr
time of emesis [4, 10]: 2.6 hr and 2.8 hr (2×) and 3.8 hr
emetic events ([4]; 7 hr divided dose group, 8 x 25 mg (n=16)): 1
time of emesis ([4]; 7 hr divided dose regimen, one subject): 12.6 h
Mean cumulative score: Dizziness ([4]; GROUP A (Bolus Dose) 200 mg): 10.4
Mean cumulative score: Regurgitation ([4]; GROUP A (Bolus Dose) 200 mg): 3.9
Mean cumulative score: Tremor ([4]; GROUP A (Bolus Dose) 200 mg): 8.9
Mean cumulative score: Dizziness [4, 11]: 4.8
Mean cumulative score: Regurgitation [4, 11]: 0.1
Mean cumulative score: Tremor [4, 11]: 2.7
subjects with emesis ([5]; 200 mg bolus dose group (15 subjects)): Three
time of emesis [5, 10]: 4.25 h and 11.2 h and 7.6 h
emetic episodes ([5]; 15 hr divided dose regimen (16 x 12.5 mg)): no emetic episodes
Mean cumulative score: Abdominal Cramping [5, 12]: 3.1
Mean cumulative score: Diarrhea [5, 12]: 3.9
Mean cumulative score: Nausea [5, 12]: 17.5
Mean cumulative score: Regurgitation [5, 12]: 4.0
Mean cumulative score: Tremor [5, 12]: 7.9
Mean cumulative score: Urgency to Defecate [5, 12]: 3.1
Mean cumulative score: Abdominal Pain ([5]; GROUP A (Bolus Dose) 200 mg, visual analogue scores summed over 24 hr post-dose): 2.7
Mean cumulative score: Abdominal Cramping [5, 13]: 0.1
Mean cumulative score: Abdominal Pain [5, 13]: 0.1
Mean cumulative score: Diarrhea [5, 13]: 0.2
Mean cumulative score: Nausea [5, 13]: 2.6
Mean cumulative score: Regurgitation [5, 13]: 0.3
Mean cumulative score: Tremor [5, 13]: 1.7
AUC(0-t) [6, 14]: 1650 ng·h/mL
CMAX [6, 14]: 74 ng/mL
TMAX [6, 14]: 6 h
AUC(0-t) ([6]; po): 1230 ng·h/mL
CMAX [7, 15]: 75 ng/mL
TMAX [7, 15]: 5.4 h
AUC(0-t) ([7]; 25 mg per hr for 7 hr, eight 25 mg doses as solution): 1440 ng·h/mL
AUC(0-t) ([7]; 200 mg single dose, two 100 mg immediate release tablets (ZOLOFT), four subjects with emesis not included): 1740 ng·h/mL
CMAX [8, 16]: 27.3 ng/mL
TMAX [8, 16]: 5.0 h
TMAX ([8]; GROUP A, Oral Tablet, 200 mg as two 100 mg tablets): 7.0 h
CMAX ([8]; GROUP A, Oral Tablet, 200 mg as two 100 mg tablets, 6 volunteers): 39.9 ng/mL
CMAX [8, 17]: 35.6 ng/mL
TMAX [8, 17]: 7.0 h
CMAX [8, 18]: 10.9 ng/mL
TMAX [8, 18]: 4.4 h
CMAX [8, 19]: 48.8 ng/mL
TMAX [8, 19]: 3.7 h
TMAX ([8]; GROUP B, Oral Tablet, 200 mg as two 100 mg tablets): 6.7 h
CMAX ([8]; GROUP B, Oral Tablet, 200 mg as two 100 mg tablets, 6 volunteers): 44.7 ng/mL
AUC(0-t) [8, 16]: 727 ng·h/mL
AUC(0-t) [8, 17]: 923 ng·h/mL
AUC(0-t) [8, 18]: 179 ng·h/mL
AUC(0-t) [8, 19]: 1270 ng·h/mL
AUC(0-t) ([8]; po, GROUP A, Oral Tablet, 200 mg as two 100 mg tablets): 1170 ng·h/mL
AUC(0-t) ([8]; po, GROUP B, Oral Tablet, 200 mg as two 100 mg tablets): 1150 ng·h/mL
AUC as percent of the AUC observed after dosing with oral tablets ([8]; infusion into the duodenal region): 110%
AUC as percent of the AUC observed after dosing with oral tablets ([8]; infusion into the ileocecal region of the small intestine): 62%
AUC as percent of the AUC observed after dosing with oral tablets ([8]; infusion into the stomach): 79%
AUC as percent of the AUC observed after dosing with oral tablets ([8]; infusion into the transverse colon): 16%

sertraline acetate
ductility (assessment in words) [9]: high ductility
elastic modulus (assessment in words) [9]: relatively low elastic modulus
hygroscopicity [1]: not hygroscopic
purity of samples after stability testing [2]: greater than 99%
